From ChEMBL document CHEMBL1201862, “PubChem BioAssay data set” (2004) come the findings set out here.

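96-well plates; 48 h exposure; 5 concentrations. Endpoints by linear interpolation between flanking doses. Not reached: highest tested concentration assigned. GI50 marks 50% less growth.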 Calls of active or inactive are those of the source. No stated cut-off is given here; in the data, active = GI50 up to about 1.1 µM and inactive = higher. Where only a bound is given, the exact number is not on record here.

Test systems include Malme-3M; OVCAR-8; CCRF-CEM; NCI-H23; LOX IMVI; ACHN; A498; OVCAR-4; NCI-H522; SR; HCC 2998; HL-60; RXF 393; SK-MEL-2; NCI/ADR-RES; K562; IGROV-1; OVCAR-3; TK-10; SN12C.
Test in all cases: NCI anticancer screen, dose series, 48 h

Regarding `Nc1n[nH]c(Nc2ccc(Cl)cc2)c1P(=O)(c1ccccc1)c1ccccc1`, the GI50 with Malme-3M is 21.5 µM (inactive); in the experiment with OVCAR-8 it was 18.4 µM (inactive); with CCRF-CEM it was 28.6 µM (inactive); in the experiment with NCI-H23, 30.4 µM (inactive); in the experiment on LOX IMVI it was 31.6 µM (inactive); with ACHN, 34.4 µM (inactive). Moreover, the GI50 in the experiment on A498 was 37.8 µM (inactive); in the experiment on OVCAR-4, 22 µM (inactive); in the experiment with NCI-H522 it was 20.2 µM (inactive); in the experiment with SR, 53.1 µM (inactive); with HCC 2998, 24.7 µM (inactive); in the experiment on HL-60 it was 25.8 µM (inactive). In addition, the GI50 is 20.9 µM (inactive) in the experiment with RXF 393; 19.9 µM (inactive) in the experiment with SK-MEL-2; 20.7 µM (inactive) in the experiment with NCI/ADR-RES; 64.9 µM (inactive) with K562; 19.1 µM (inactive) in the experiment on IGROV-1; 18.1 µM (inactive) with OVCAR-3. In addition, in the experiment with TK-10, the GI50 was 30.1 µM (inactive).
Take `c1ccc2c(CCNC3=NCCO3)cccc2c1`: the GI50 with Malme-3M, with OVCAR-8, in the experiment with CCRF-CEM, in the experiment with NCI-H23, in the experiment on LOX IMVI and with ACHN was > 10 µM (inactive) each time. For the same compound, the GI50 with A498, in the experiment on OVCAR-4, with NCI-H522, in the experiment with SR, in the experiment with HCC 2998 and in the experiment with HL-60 was > 10 µM (inactive) each time. For the same compound, the GI50 in the experiment on RXF 393, with SK-MEL-2, with NCI/ADR-RES, in the experiment with K562, in the experiment with IGROV-1 and in the experiment on OVCAR-3 was > 10 µM (inactive) each time. For the same compound, in the experiment with TK-10, the GI50 is > 10 µM (inactive).
Take `O=C(Nc1ccccc1)N1CCN(C(=O)Nc2ccccc2)C1=S`: the GI50 was > 100 µM (inactive) in the experiment with Malme-3M; 34.6 µM (inactive) in the experiment on OVCAR-8; 97.7 µM (inactive) in the experiment with CCRF-CEM; 22.3 µM (inactive) in the experiment on NCI-H23; > 100 µM (inactive) in the experiment on LOX IMVI; 8.57 µM (inactive) in the experiment on ACHN. Moreover, the GI50 in the experiment on A498 is 0.0652 µM (active); in the experiment on OVCAR-4, 55.7 µM (inactive); in the experiment with NCI-H522, 90.2 µM (inactive); in the experiment with SR, > 100 µM (inactive); in the experiment with HCC 2998, > 100 µM (inactive); in the experiment on HL-60, 29.3 µM (inactive). Besides, the GI50 in the experiment on RXF 393 is 19.9 µM (inactive); with SK-MEL-2 it was > 100 µM (inactive); in the experiment with NCI/ADR-RES it was 41.9 µM (inactive); in the experiment with K562, > 100 µM (inactive); in the experiment with SN12C, 59.3 µM (inactive); in the experiment with IGROV-1 it was 49 µM (inactive). Also, the GI50 is > 100 µM (inactive) in the experiment on OVCAR-3 and 38.5 µM (inactive) with TK-10.
